In patent publication US8802664B2 (Bioproject, priority 2010, dated 2014) one finds Ki or IC50 activity class and melting point data, which are given here for 17 compounds.

For data set [1], the target named is T1, human H4 receptor (Homo sapiens, UniProt Q9H3N8).
T1 construct: expressed in transfected cells
Description: [3H]Histamine binding on membranes of CHO cells stably expressing human H4 receptor. The essentials:
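Nonspecific signal was taken as that remaining with 10 μM JNJ 7777120 present. Assays contained 20 μg CHO-derived hH4 membrane protein in Tris/HCl–EDTA buffer (pH 7.4) and were terminated on polyethyleneimine-soaked filters, with bound tritium quantified by scintillation.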

T1 sequence (Q9H3N8 whole entry): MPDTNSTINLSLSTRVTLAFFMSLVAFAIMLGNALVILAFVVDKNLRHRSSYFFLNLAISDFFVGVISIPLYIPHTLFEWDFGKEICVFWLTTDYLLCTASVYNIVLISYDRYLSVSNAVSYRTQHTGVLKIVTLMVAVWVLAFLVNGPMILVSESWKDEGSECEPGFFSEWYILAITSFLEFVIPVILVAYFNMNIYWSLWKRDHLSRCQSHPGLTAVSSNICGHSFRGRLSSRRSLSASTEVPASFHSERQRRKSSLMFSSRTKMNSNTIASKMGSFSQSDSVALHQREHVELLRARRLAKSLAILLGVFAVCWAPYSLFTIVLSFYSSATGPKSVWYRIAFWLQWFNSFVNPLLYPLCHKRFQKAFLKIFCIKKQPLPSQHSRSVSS

The term melting point denotes the temperature, or range, at which the solid turns liquid. `CN1CCC(OC(c2nc3ccccc3[nH]2)c2cc(F)ccc2F)CC1` (stereo not shown) [Example 424, 2-[(2,5-difluorophenyl)(1-methylpiperidin-4-yloxy)methyl]-1H-benzimidazole] gave a melting point of 140 °C. This compound came in with a Ki or IC50 activity class in data set [1] of less than 300 nM.

In turn, `CN1CCC(OC(c2ccccc2)c2nc3ccccc3s2)CC1` (stereo not shown) [Example 1, 2-[(1-methylpiperidin-4-yloxy)phenylmethyl]benzothiazole] came in with a melting point of 115 °C. The compound further returned a Ki or IC50 activity class in data set [1] of less than 300 nM.

Take `CN1CCC(OC(c2ccc(F)cc2)c2nc3ccccc3[nH]2)CC1` (stereo not shown) [Example 179, 2-[(4-fluorophenyl)(1-methylpiperidin-4-yloxy)methyl]-1H-benzimidazole]: the melting point was determined as 131 °C. This compound displayed a Ki or IC50 activity class in data set [1] of less than 300 nM.

For the compound `CN1CCC(OC(c2cccc(CCCCCCNC(=N)NC(=O)OC(C)(C)C)c2)c2nc3ccccc3[nH]2)CC1` (stereo not shown) [Example 364, N-tert-butoxycarbonyl-N′-(6-{3-[(1H-benzimidazol-2-yl)(1-methylpiperidin-4-yloxy)methyl]phenyl}hexyl)guanidine], the melting point is 90 °C. The same compound showed a Ki or IC50 activity class in data set [1] of less than 1000 nM.

Take `CN1CCC(NC(c2ccc[nH]2)c2nc3ccccc3s2)CC1` (stereo not shown) [Example 58, [benzothiazol-2-yl(1H-pyrrol-2-yl)methyl](1-methylpiperidin-4-yl)amine]: the melting point worked out at 125 °C. In addition, the Ki or IC50 activity class in data set [1] was less than 300 nM.

For `CN1CCC(NC(c2cccc(OCCCC(F)(F)F)c2)c2nc3ccccc3[nH]2)CC1` (stereo not shown) [Example 175, {(1H-benzimidazol-2-yl)[3-(4,4,4-trifluoro-butoxy)phenyl]methyl}(1-methylpiperidin-4-yl)amine], the melting point came out at 94 °C. Moreover, the Ki or IC50 activity class in data set [1] was less than 300 nM.

For the compound `CN1CCC(OC(c2ccccc2)c2nc3cccc(N)c3[nH]2)CC1` (stereo not shown) [Example 200, 2-[(1-methylpiperidin-4-yloxy)phenyl-methyl]-3H-benzimidazol-4-ylamine], the melting point came to 96.7 °C. For the same compound, the Ki or IC50 activity class in data set [1] was less than 300 nM.

In turn, `CN1CCC(OC(c2nc3ccccc3[nH]2)c2ccccc2O)CC1` (stereo not shown) [Example 561, 2-[(1H-benzimidazol-2-yl)(1-methylpiperidin-4-yloxy)methyl]phenol] registered a melting point of 118 to 120 °C. In addition, the Ki or IC50 activity class in data set [1] is less than 30 nM.

`CN1CCC(OC(c2cccc(C#CCO)c2)c2nc3ccccc3[nH]2)CC1` (stereo not shown) [Example 190, 3-{3-[(1H-benzimidazol-2-yl)(1-methylpiperidin-4-yloxy)methyl]phenyl}prop-2-yn-1-ol] showed a melting point of 117 to 120 °C. The Ki or IC50 activity class in data set [1] was less than 300 nM.

In the case of `CN1CCC(OC(c2nc3ccccc3[nH]2)c2ccc3c(c2O)CCCC3)CC1` (stereo not shown) [Example 619], the melting point came to 125 °C. In data set [1], this compound gave a Ki or IC50 activity class of less than 300 nM.

For the compound `Cc1ccc(C(OC2CCN(C)CC2)c2nc3ccccc3[nH]2)cc1Br` (stereo not shown) [Example 261, 2-[(3-bromo-4-methylphenyl)(1-methylpiperidin-4-yloxy)methyl]-1H-benzimidazole], the melting point was 92 °C. Besides, the Ki or IC50 activity class in data set [1] is less than 300 nM.

The compound `CN1CCC(OC(c2cccc(SCCNC(=N)N)c2)c2nc3cc(F)ccc3[nH]2)CC1` (stereo not shown) [Example 437, N-(2-{3-[(5-fluoro-1H-benzimidazol-2-yl)(1-methylpiperidin-4-yloxy)methyl]phenylsulfanyl}ethyl)guanidine] had a melting point of 170 °C. The compound further had a Ki or IC50 activity class in data set [1] of less than 30 nM.

`CN1CCC(OC(c2cccc(C#CCCNC(=N)NC(=O)OC(C)(C)C)c2)c2nc3ccccc3s2)CC1` (stereo not shown) [Example 399, N-tert-butoxycarbonyl-N′-(4-{3-[(benzothiazol-2-yl)(1-methylpiperidin-4-yloxy)methyl]phenyl}but-3-ynyl)guanidine] gave a melting point of 120 °C. Further, in data set [1], the Ki or IC50 activity class is less than 300 nM.

Take `CN1CCC(OC(c2nc3ccccc3[nH]2)c2cccc(I)c2F)CC1` (stereo not shown) [Example 334, 2-[(2-fluoro-3-iodophenyl)(1-methylpiperidin-4-yloxy)methyl]-1H-benzimidazole]: the melting point turned out to be 125 °C. In data set [1], the Ki or IC50 activity class is less than 300 nM.

Turning to `CN1CCC(OC(c2nc3ccccc3[nH]2)c2ccccc2Cl)CC1` (stereo not shown) [Example 151, 2-[(2-chlorophenyl)(1-methylpiperidin-4-yloxy)methyl]-1H-benzimidazole], the melting point is 212 °C. In data set [1], this compound yielded a Ki or IC50 activity class of less than 300 nM.

Regarding `COc1cccc(C(NC2CCN(C)CC2)c2nc3ccccc3[nH]2)c1` (stereo not shown) [Example 70, [(1H-benzimidazol-2-yl)(3-methoxyphenyl)methyl](1-methylpiperidin-4-yl)amine], the melting point was found to be 182 °C. The compound further showed a Ki or IC50 activity class in data set [1] of less than 300 nM.

`CN1CCC(OC(c2cccc(C#CCN)c2)c2nc3ccccc3[nH]2)CC1` (stereo not shown) [Example 194, 3-{3-[(1H-benzimidazol-2-yl)(1-methylpiperidin-4-yloxy)methyl]phenyl}prop-2-ynylamine] came in with a melting point of 101 °C. This compound registered a Ki or IC50 activity class in data set [1] of less than 300 nM.
